# Results as given in patent publication US11530244B2, “Cyclic polypeptides for PCSK9 inhibition” (priority 2018, dated 2022).
# Starred links: 1 amine or outer side, 2 acyl side, 3 side chain; linkers in the order of their positions; H or OH if unused. Positions of bridges follow the written chain, without caps; N, C: chain ends. Non-standard residues stand in square brackets, D forms with d. Residues, ends and D or L forms follow the SMILES beside them. Phe(3-CH2NH2) = O=C([C@H](Cc1cccc(CN[*:3])c1)N[*:1])[*:2]; NHCH2C6H4(p)CH2CH2NH = c1cc(CN[*:1])ccc1CCN[*:2]; X61 = O=C(CCCCC(=O)[*:1])NCc1ccc(CC(=O)[*:2])cc1; Phe(4-COOH) = N[C@@H](Cc1ccc(C(=O)O)cc1)C(=O)O; Trp(5-F) = N[C@@H](Cc1c[nH]c2ccc(F)cc12)C(=O)O; Trp(7-aza) = N[C@@H](Cc1c[nH]c2ncccc12)C(=O)O; Phac(3-amino) = O=C(Cc1cccc(N[*:1])c1)[*:2]; Phe(4-CH2NH2) = NCc1ccc(C[C@H](N)C(=O)O)cc1; dPro(cis-4-NH2) = N[C@H]1CN[C@@H](C(=O)O)C1; X3 = O=C(CCSCc1cc(F)cc(CSCCN[*:1])c1)[*:2]; mXylylene(5-F) = Fc1cc(C[*:1])cc(C[*:2])c1; Heptanedioyl = O=C(CCCCCC(=O)[*:2])[*:1]; Pro(cis-4-F) = O=C(O)[C@@H]1C[C@H](F)CN1; X4 = O=C(CCSCc1cccc(CSCCN[*:1])c1)[*:2]; X40 = FC(F)(F)c1cc(C[*:1])cc(C[*:2])c1; mXylylene = c1cc(C[*:1])cc(C[*:2])c1; AEF = NCCOc1ccc(C[C@H](N)C(=O)O)cc1; cisHyp = O=C(O)[C@@H]1C[C@H](O)CN1; X34 = O=C(CCC1CCN([*:1])CC1)[*:2]; aThr = C[C@H](O)[C@H](N)C(=O)O; Suc = O=C(CCC(=O)[*:2])[*:1]; αMeP = C[C@@]1(C(=O)O)CCCN1; Dab = NCC[C@H](N)C(=O)O; Dap = NC[C@H](N)C(=O)O; X2 = O=C(C[*:2])[*:1]; Mpa = O=C(O)CCS
# Target: PCSK9 (Homo sapiens (Human), UniProt Q8NBP7)
# Assay: PCSK9 Alexa FRET Standard assay (displacement of AlexaFluor647 tagged cyclic peptide Reagent A)
# Assay type: binding
# Settings: PCSK9 Alexa FRET Standard assay, 0.5 nM PCSK9, 20 nM AF cyclic peptide Reagent A; read-out: IC50
# Procedure: A solution containing 1 nM biotinylated PCSK9+2.5 nM Lance Streptavidin Europium (Strep-Eu) was made in 50 mM HEPES pH 7.4, 0.15 M NaCl, 5 mM CaCl2), 0.01% BSA, and 0.01% Surfactant P20. A separate solution containing 40 nM of the AlexaFluor tagged cyclic peptide was made in the same buffer system. An Echo was used to transfer 0.750 ul of compound to an assay plate followed by the addition of 15 ul of PCSK9+Stept-Eu and 15 ul of AF peptide. The final assay volume was 30.750 ul containing 0.5 nM PCSK9, 1.25 nM Strep-Eu, and 20 nM AF cyclic peptide. The reaction was incubated at room temperature for at least two hours prior to fluorescence measurements using an Envision Multilabel Reader. IC50 values were determined by fitting data to a sigmoidal dose-response curve using nonlinear regression. Ki was then calculated from the IC50 and the KD of AF cyclic peptide. Counts (B-counts) of the europium-labeled PCSK9 were followed to observe if compounds were […]. A fall off of the B-counts likely indicated a false positive of inhibition. Data from this procedure was reported as “A=‘numerical value’ (nanomolar)”
# Sequence of PCSK9 (Q8NBP7 153-692): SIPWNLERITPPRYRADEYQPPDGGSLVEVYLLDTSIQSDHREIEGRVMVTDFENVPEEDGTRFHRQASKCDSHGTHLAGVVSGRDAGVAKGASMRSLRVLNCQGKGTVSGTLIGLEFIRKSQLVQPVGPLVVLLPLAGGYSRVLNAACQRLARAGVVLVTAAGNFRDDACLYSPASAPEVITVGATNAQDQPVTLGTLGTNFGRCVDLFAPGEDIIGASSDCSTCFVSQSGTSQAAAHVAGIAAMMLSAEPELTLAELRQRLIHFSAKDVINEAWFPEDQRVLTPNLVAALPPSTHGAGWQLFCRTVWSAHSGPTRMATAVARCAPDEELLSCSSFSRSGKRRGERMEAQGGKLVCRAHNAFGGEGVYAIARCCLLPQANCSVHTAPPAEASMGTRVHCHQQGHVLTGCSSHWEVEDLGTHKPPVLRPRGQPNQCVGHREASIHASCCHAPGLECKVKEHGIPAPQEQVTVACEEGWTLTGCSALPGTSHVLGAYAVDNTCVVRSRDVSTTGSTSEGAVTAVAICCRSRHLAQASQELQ
row,Compound,IC50 [µM]
1,COc1ccc(C[C@@H]2NC(=O)[C@H](Cc3cnc[nH]3)NC(=O)[C@H](CC(=O)O)NC(=O)[C@H](Cc3c[nH]c4ccc(F)cc34)NC(=O)[C@H](Cc3c[nH]c4ccc(F)cc34)NC(=O)[C@@H](C)NC(=O)Cc3cccc(c3)NC(=O)C[C@@H](C(=O)O)NC(=O)[C@]3(C)CCCN3C2=O)cc1 [Compound 413] ([Phac(3-amino)][dA][Trp(5-F)][Trp(5-F)]DHY(Me)[αMeP]D-OH; lactam N-9),21 to 50
2,COc1ccc(C[C@@H]2NC(=O)[C@@H]([C@H](C)O)NC(=O)[C@@H]3C[C@H](O)CN3C(=O)[C@H](Cc3c[nH]c4ccc(F)cc34)NC(=O)[C@H](Cc3c[nH]c4ccc(F)cc34)NC(=O)[C@@H](C)NC(=O)[C@H](CCCCN)NC(=O)CCSCc3cccc(c3)CSCCNC(=O)[C@]3(C)CCCN3C2=O)cc1 [Compound 085] (cyclo(K[dA][Trp(5-F)][Trp(5-F)][cisHyp][dT]Y(Me)[αMeP][X4])),21 to 50
3,CC[C@H](C)[C@@H]1NC(=O)[C@@H]2CCCN2C(=O)[C@H](Cc2c[nH]c3ccc(F)cc23)NC(=O)[C@H](Cc2c[nH]c3ccc(F)cc23)NC(=O)CNC(=O)[C@H](CCCCN)NC(=O)CCSCc2cccc(c2)CSC[C@@H](C(N)=O)NC(=O)[C@]2(C)CCCN2C(=O)[C@H](Cc2ccc(O)cc2)NC1=O [Compound 006] ([Mpa]KG[Trp(5-F)][Trp(5-F)]PIY[αMeP]C-NH2; linker 1-10 via mXylylene),21 to 50
4,CC(=O)N[C@H]1CCc2cn(nn2)-c2ccc(cc2)C[C@@H](C(N)=O)NC(=O)[C@]2(C)CCCN2C(=O)[C@H](Cc2ccc(O)cc2)NC(=O)[C@H](Cc2cnc[nH]2)NC(=O)[C@H](CC(=O)O)NC(=O)[C@H](Cc2c[nH]c3ccc(F)cc23)NC(=O)[C@H](Cc2c[nH]c3ccc(F)cc23)NC(=O)CNC(=O)[C@H](C)NC1=O [Compound 331],21 to 50
5,COc1ccc(C[C@@H]2NC(=O)[C@H](Cc3cnc[nH]3)NC(=O)[C@H](CC(=O)O)NC(=O)[C@H](Cc3c[nH]c4ccc(F)cc34)NC(=O)[C@H](Cc3c[nH]c4ccc(F)cc34)NC(=O)[C@@H](C)NC(=O)CCC3CCN(CC3)C(=O)c3ccc(cc3)C[C@@H](C(N)=O)NC(=O)[C@]3(C)CCCN3C2=O)cc1 [Compound 389] ([X34][dA][Trp(5-F)][Trp(5-F)]DHY(Me)[αMeP][Phe(4-COOH)]-NH2; lactam N-9),21 to 50
6,COc1ccc(C[C@@H]2NC(=O)[C@H]([C@@H](C)O)NC(=O)[C@@H]3C[C@H](F)CN3C(=O)[C@H](Cc3c[nH]c4ccc(F)cc34)NC(=O)[C@H](Cc3c[nH]c4ccc(F)cc34)NC(=O)[C@@H](C)NC(=O)CCCCCC(=O)NCc3ccc(cc3)C[C@@H](C(N)=O)NC(=O)[C@]3(C)CCCN3C2=O)cc1 [Compound 125] ([dA][Trp(5-F)][Trp(5-F)][Pro(cis-4-F)]TY(Me)[αMeP][Phe(4-CH2NH2)]-NH2; linker N-8 via Heptanedioyl),21 to 50
7,COc1ccc(C[C@@H]2NC(=O)[C@H]([C@@H](C)O)NC(=O)[C@@H]3C[C@H](F)CN3C(=O)[C@H](Cc3c[nH]c4ccc(F)cc34)NC(=O)[C@H](Cc3c[nH]c4ccc(F)cc34)NC(=O)[C@@H](C)NC(=O)[C@H](CCCCN)NC(=O)[C@@H](NC(C)=O)CNC(=O)COc3ccc(cc3)C[C@@H](C(N)=O)NC(=O)[C@]3(C)CCCN3C2=O)cc1 [Compound 094] (Ac-[Dap]K[dA][Trp(5-F)][Trp(5-F)][Pro(cis-4-F)]TY(Me)[αMeP]Y-NH2; linker 1-10 via X2),21 to 50
8,COc1ccc(C[C@@H]2NC(=O)[C@H](Cc3cnc[nH]3)NC(=O)[C@H](CC(=O)O)NC(=O)[C@H](Cc3c[nH]c4ccc(F)cc34)NC(=O)[C@H](Cc3c[nH]c4ccc(F)cc34)NC(=O)[C@@H](C)NC(=O)[C@H](CCCCN)NC(=O)[C@@H](NC(C)=O)CCC(=O)NCc3ccc(cc3)CCNC(=O)[C@]3(C)CCCN3C2=O)cc1 [Compound 421] (Ac-EK[dA][Trp(5-F)][Trp(5-F)]DHY(Me)[αMeP]; linker 1-C via NHCH2C6H4(p)CH2CH2NH),0.1 to 1
9,COc1ccc(C[C@@H]2NC(=O)[C@@H]([C@H](C)O)NC(=O)[C@H]3C[C@@H](N)CN3C(=O)[C@H](Cc3c[nH]c4ccc(F)cc34)NC(=O)[C@H](Cc3c[nH]c4ccc(F)cc34)NC(=O)[C@@H](C)NC(=O)[C@H](CCCCN)NC(=O)CCSCc3cc(F)cc(c3)CSCCNC(=O)[C@]3(C)CCCN3C2=O)cc1 [Compound 082] (cyclo(K[dA][Trp(5-F)][Trp(5-F)][dPro(cis-4-NH2)][dT]Y(Me)[αMeP][X3])),0.1 to 1
10,CC[C@H](C)[C@@H]1NC(=O)[C@@H]2CCCN2C(=O)[C@H](Cc2c[nH]c3ccc(F)cc23)NC(=O)[C@H](Cc2c[nH]c3ccc(F)cc23)NC(=O)[C@@H](C)NC(=O)[C@H](CCCCN)NC(=O)CCSCc2cc(F)cc(c2)CSC[C@@H](C(N)=O)NC(=O)[C@]2(C)CCCN2C(=O)[C@H](Cc2ccc(OC)cc2)NC1=O [Compound 008] ([Mpa]K[dA][Trp(5-F)][Trp(5-F)]PIY(Me)[αMeP]C-NH2; linker 1-10 via mXylylene(5-F)),21 to 50
11,NCCCC[C@@H]1NC(=O)CCSCc2cccc(c2)CSC[C@@H](C(N)=O)NC(=O)[C@@H]2CCCN2C(=O)[C@H](Cc2c[nH]c3ncccc23)NC(=O)[C@H](Cc2c[nH]cn2)NC(=O)[C@H](CC(=O)O)NC(=O)[C@H](Cc2c[nH]c3ccc(F)cc23)NC(=O)[C@H](Cc2c[nH]c3ccc(F)cc23)NC(=O)CNC1=O [Compound 235] ([Mpa]KG[Trp(5-F)][Trp(5-F)]DH[Trp(7-aza)]PC-NH2; linker 1-10 via mXylylene),21 to 50
12,COc1ccc(C[C@@H]2NC(=O)[C@H]([C@@H](C)O)NC(=O)[C@@H]3CCCN3C(=O)[C@H](Cc3c[nH]c4ccc(F)cc34)NC(=O)[C@H](Cc3c[nH]c4ccc(F)cc34)NC(=O)[C@@H](C)NC(=O)[C@H](CCCCN)NC(=O)CCSCc3cc(cc(C(F)(F)F)c3)CSC[C@@H](C(N)=O)NC(=O)[C@]3(C)CCCN3C2=O)cc1 [Compound 073] ([Mpa]K[dA][Trp(5-F)][Trp(5-F)]PTY(Me)[αMeP]C-NH2; linker 1-10 via X40),21 to 50
13,COc1ccc(C[C@@H]2NC(=O)[C@H](Cc3cnc[nH]3)NC(=O)[C@H](CC(=O)O)NC(=O)[C@H](Cc3c[nH]c4ccc(F)cc34)NC(=O)[C@H](Cc3c[nH]c4ccc(F)cc34)NC(=O)[C@@H](C)NC(=O)[C@H](CCCCN)NC(=O)[C@@H](NC(C)=O)CC(=O)NCc3ccc(cc3)CCNC(=O)[C@]3(C)CCCN3C2=O)cc1 [Compound 411] (Ac-DK[dA][Trp(5-F)][Trp(5-F)]DHY(Me)[αMeP]; linker 1-C via NHCH2C6H4(p)CH2CH2NH),1 to 12.1
14,COc1ccc(C[C@@H]2NC(=O)[C@@H]3CCCC(=O)N[C@@H]4C[C@H](C(=O)N3)N(C4)C(=O)[C@H](Cc3c[nH]c4ccc(F)cc34)NC(=O)[C@H](Cc3c[nH]c4ccc(F)cc34)NC(=O)[C@@H](C)NC(=O)[C@H](CCCCN)NC(=O)CCSCc3cccc(c3)CSCCNC(=O)[C@]3(C)CCCN3C2=O)cc1 [Compound 522],0.00011 to 0.1
15,COc1ccc(C[C@@H]2NC(=O)[C@H]([C@@H](C)O)NC(=O)[C@@H]3C[C@H](F)CN3C(=O)[C@H](Cc3c[nH]c4ccc(F)cc34)NC(=O)[C@H](Cc3c[nH]c4ccc(F)cc34)NC(=O)[C@@H](C)NC(=O)[C@H](CCCCN)NC(=O)CCC(=O)NCCOc3ccc(cc3)C[C@@H](C(N)=O)NC(=O)[C@]3(C)CCCN3C2=O)cc1 [Compound 098] (K[dA][Trp(5-F)][Trp(5-F)][Pro(cis-4-F)]TY(Me)[αMeP][AEF]-NH2; linker N-9 via Suc),21 to 50
16,CO[C@@H](C)[C@@H]1NC(=O)[C@@H]2CCCN2C(=O)[C@H](Cc2c[nH]c3ccc(F)cc23)NC(=O)[C@H](Cc2c[nH]c3ccc(F)cc23)NC(=O)[C@@H](C)NC(=O)[C@H](CCCCN)NC(=O)CCSCc2cccc(c2)CSCCNC(=O)[C@]2(C)CCCN2C(=O)[C@H](Cc2ccc(O)cc2)NC1=O [Compound 071] (cyclo(K[dA][Trp(5-F)][Trp(5-F)]P[aThr](Me)Y[αMeP][X4])),21 to 50
17,COc1ccc(C[C@@H]2NC(=O)[C@H]([C@@H](C)O)NC(=O)[C@@H]3C[C@H](F)CN3C(=O)[C@H](Cc3c[nH]c4ccc(F)cc34)NC(=O)[C@H](Cc3c[nH]c4ccc(F)cc34)NC(=O)[C@@H](C)NC(=O)[C@H](CCCCN)NC(=O)[C@@H](NC(C)=O)CC(=O)NCc3cccc(c3)C[C@@H](C(N)=O)NC(=O)[C@]3(C)CCCN3C2=O)cc1 [Compound 077] (Ac-DK[dA][Trp(5-F)][Trp(5-F)][Pro(cis-4-F)]TY(Me)[αMeP][Phe(3-CH2NH2)]-NH2; lactam 1-10),21 to 50
18,COc1ccc(C[C@@H]2NC(=O)[C@H](Cc3cnc[nH]3)NC(=O)[C@H](CC(=O)O)NC(=O)[C@H](Cc3c[nH]c4ccc(F)cc34)NC(=O)[C@H](Cc3c[nH]c4ccc(F)cc34)NC(=O)[C@@H](C)NC(=O)CCCCC(=O)NCc3ccc(cc3)CC(=O)NC[C@@H](C(N)=O)NC(=O)[C@]3(C)CCCN3C2=O)cc1 [Compound 412] ([dA][Trp(5-F)][Trp(5-F)]DHY(Me)[αMeP][Dap]-NH2; linker N-8 via X61),1 to 12.1
19,COc1ccc(C[C@@H]2NC(=O)[C@H]([C@@H](C)O)NC(=O)[C@@H]3C[C@H](F)CN3C(=O)[C@H](Cc3c[nH]c4ccc(F)cc34)NC(=O)[C@H](Cc3c[nH]c4ccc(F)cc34)NC(=O)[C@@H](C)NC(=O)[C@H](CCCCN)NC(=O)[C@@H](NC(C)=O)CCNC(=O)COc3ccc(cc3)C[C@@H](C(N)=O)NC(=O)[C@]3(C)CCCN3C2=O)cc1 [Compound 075] (Ac-[Dab]K[dA][Trp(5-F)][Trp(5-F)][Pro(cis-4-F)]TY(Me)[αMeP]Y-NH2; linker 1-10 via X2),21 to 50
